The test system of test [1] is Trifolium repens. The experiment in a line: Herbicidal activity against Trifolium repens at 75 g a.i./ha measured after 14 days relative to control. Type of test: functional.
Test [2] deals with Echinochloa crus-galli. As to the kind of experiment: Herbicidal activity against Echinochloa crus-galli (barnyard grass) at 75 g a.i./ha measured after 14 days relative to control. Type of test: functional.
For test [3], the system named is Cyperus iria. As to the kind of experiment: Herbicidal activity against Cyperus iria at 75 g a.i./ha measured after 14 days relative to control. Type of test: functional.
Test [4] deals with Dactylis glomerata. The experiment in a line: Herbicidal activity against Dactylis glomerata at 75 g a.i./ha measured after 14 days relative to control. Type of test: functional.
The subject of test [5] is Dactylis glomerata. As to the kind of experiment: Herbicidal activity against Dactylis glomerata measured after 14 days relative to control. Type of test: functional, organism-based. Conditions: for EC50: 336 h.
The subject of test [6] is Trifolium repens. The experiment in a line: Herbicidal activity against Trifolium repens measured after 14 days relative to control. Type of test: functional, organism-based. The following applies: for EC50: 336 h.
For test [7], the system named is Cyperus iria. The experiment in a line: Herbicidal activity against Cyperus iria measured after 14 days relative to control. Type of test: functional, organism-based. Conditions: for EC50: 336 h.
For test [8], the system named is Echinochloa crus-galli. As to the kind of experiment: Herbicidal activity against Echinochloa crus-galli (barnyard grass) measured after 14 days relative to control. Type of test: functional, organism-based. The following applies: for EC50: 336 h.
In test [9] the test system is Cyperus iria. The experiment in a line: Herbicidal activity against Cyperus iria at 15 g a.i./ha measured after 14 days relative to control. Type of test: functional.
The test system of test [10] is Dactylis glomerata. The experiment in a line: Herbicidal activity against Dactylis glomerata at 15 g a.i./ha measured after 14 days relative to control. Type of test: functional.
Test [11] deals with Trifolium repens. As to the kind of experiment: Herbicidal activity against Trifolium repens at 15 g a.i./ha measured after 14 days relative to control. Type of test: functional.
Test [12] has as its system Echinochloa crus-galli. The experiment in a line: Herbicidal activity against Echinochloa crus-galli (barnyard grass) at 15 g a.i./ha measured after 14 days relative to control. Type of test: functional.

Converted amounts (≈) assume the structure as drawn.

Consider `CCOC(=O)c1c(SCc2ccccc2)nn(-c2ccccc2)c1NCCCN=C=S`, for which the Activity in [1] is 65.78%; in [2], 65.32%; in [3], 68.59%; in test [4], 64.53%.

Take `CCOC(=O)c1c(SCc2ccccc2)nn(C)c1NCCCN=C=S`: the Activity stood at 45.12% in test [1], 63.32% in test [2], 55.36% in test [3] and 46.53% in test [4].

`N#Cc1c(SCc2ccccc2)nn(-c2ccccc2)c1NCCCN=C=S`: the Activity entry in [5] was “Dose-dependent effect”; in test [6], “Dose-dependent effect”; in test [7] it was “Dose-dependent effect”; in [1], 75.57%; in [2], 79.39%; in test [3], 86.53%. Moreover, the Activity was 79.26% in test [4] and “Dose-dependent effect” in test [8]. For the same molecule, the EC50 is 62.4 µg/mL (≈ 154 µM) in test [5], 67.7 µg/mL (≈ 167 µM) in test [6], 65.8 µg/mL (≈ 162 µM) in test [7] and 64.3 µg/mL (≈ 159 µM) in [8].

As to `C=CCN=C=S` [ALLYL ISOTHIOCYANATE], the Activity came out at 13.33% in test [1], 25.86% in test [2], 32.59% in test [3] and 40.12% in test [4].

Regarding `CCOC(=O)c1c(SC)nn(-c2ccccc2)c1NCCCN=C=S`, the Activity in test [1] is recorded as 60.68%; in test [2] it was 58.93%; in [3], 60.23%; in test [4], 59.08%.

For `CCOC(=O)c1ccccc1S(=O)(=O)NC(=O)Nc1nc(Cl)cc(OC)n1` [CHLORIMURON ETHYL], the EC50 is 15.2 µg/mL (≈ 36.7 µM) in test [5], 9.98 µg/mL (≈ 24.1 µM) in test [6], 12.9 µg/mL (≈ 31.1 µM) in test [7] and 10.7 µg/mL (≈ 25.7 µM) in [8]. Besides, the Activity is on record as 92.23% in [9], 78.25% in [10], 95.69% in test [11] and 98.32% in [12].

For the molecule `CSc1nn(C)c(NCCCN=C=S)c1C#N`, the Activity result in test [5] is “Dose-dependent effect”; in test [6], “Dose-dependent effect”; in test [7], “Dose-dependent effect”; in test [1], 73.33%; in [2] it was 78.69%; in test [3], 70.23%. For the same molecule, the Activity is 74.33% in test [4] and “Dose-dependent effect” in [8]. Further, the EC50 is 59.4 µg/mL (≈ 222 µM) in [5], 67.4 µg/mL (≈ 252 µM) in test [6], 64.9 µg/mL (≈ 243 µM) in test [7] and 65.3 µg/mL (≈ 244 µM) in test [8].

For the molecule `CSc1nn(-c2ccccc2)c(NCCCN=C=S)c1C#N`, the Activity in test [1] stood at 56.46%; in [2], 54.62%; in [3] it was 57.69%; in [4], 55.62%.

`Cn1nc(SCc2ccccc2)c(C#N)c1NCCCN=C=S`: the Activity in test [1] is listed as 34.48%; in test [2], 44.62%; in [3], 42.56%; in test [4] it was 31.25%.

In the case of `CCOC(=O)c1c(SC)nn(C)c1NCCCN=C=S`, the Activity was 62.39% in test [1], 52.32% in [2], 58.96% in [3] and 56.25% in test [4].

One may read the EC50 as the concentration that produces a half-maximal response.

Source of the values: ChEMBL document CHEMBL3046919, “Synthesis and herbicidal activity of substituted pyrazole isothiocyanates” (Molecules, 2012).
